The subject of one test is brain. Put plainly: Matured TTM-001 and TTM-002 variants, NGS enrichment in mouse brain. The settings on record: relative to AAV9 control. In kind it is in vivo, mice.
Test [1] relates to brains, heart, liver, muscle, and DRG of the NHPs. Put plainly: Maturation of TTM-001 and TTM-002 capsids, NGS enrichment in NHP tissues. In kind it is in vivo. The settings on record: relative to AAV9 control. Put shortly: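 Variants carry mutations within and flanking the loop IV peptide insert: positions 450–466 were triplet-randomized, while positions 449–466 received low-frequency point mutations. The combined pool went into two NHPs, and each peptide was scored by NGS enrichment ratio against AAV9.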

Setting [2] is: NGS fold-enrichment, mouse brain.
Setting [3] is: NGS fold-enrichment of RNA, NHP brain.
Where [4] appears, read: NGS fold-enrichment, NHP liver DNA.
The mark [5] stands for this setting: NGS fold-enrichment, NHP liver RNA.
Where [6] appears, read: NGS fold-enrichment, NHP muscle.
Where [7] appears, read: NGS fold-enrichment of matured AAV capsid variants, NHP brain, RNA.
Setting [8] is: NGS fold-enrichment, brain of mice.
Setting [9] is: NGS fold-enrichment, DRG of NHPs.
[10] abbreviates: NGS fold-enrichment, RNA, brain of NHPs.
Where [11] appears, read: NGS fold-enrichment, heart of NHPs.
The mark [12] stands for this setting: NGS fold-enrichment, liver DNA of NHPs.
The mark [13] stands for this setting: NGS fold-enrichment, liver RNA of NHPs.
Setting [14] is: NGS fold-enrichment, muscle of NHPs.

Results on 9 sequences are retold here after patent US20260250318A1, “COMPOSITIONS AND METHODS FOR CROSSING THE BLOOD BRAIN BARRIER” (VOYAGER THERAPEUTICS, INC., priority 2022, published 2026).

As for KTINGHDSPHKIGQNQHA, the “Fold Enrichment relative to AAV9, Brain (Mouse)” value in the test with brain (setting [2]) is 7.578 fold. In test [1] (setting [3]), the “Fold Enrichment relative to AAV9, Brain (NHP)” value is reported as 77.321 fold. The “Fold Enrichment relative to AAV9, DRG (NHP)” value in test [1] (NGS fold-enrichment, NHP DRG) is 0.000 fold. In addition, the “Fold Enrichment relative to AAV9, Heart (NHP)” value in test [1] (NGS fold-enrichment, NHP heart) worked out at 18.836 fold. For the same sequence, in test [1] (setting [4]), the “Fold Enrichment relative to AAV9, Liver DNA (NHP)” value is listed as 0.132 fold. In addition, the “Fold Enrichment relative to AAV9, Liver RNA (NHP)” value in test [1] (setting [5]) is given as 0.220 fold. The “Fold Enrichment relative to AAV9, Muscle (NHP)” value in test [1] (setting [6]) came to 0.028 fold.
With KTVIGSGSPHSKSQNQQT, the “Fold Enrichment relative to AAV9, Brain (Mouse)” value in the test on brain (mouse brain) is recorded as 69.121 fold. In addition, the “Fold Enrichment relative to AAV9, Brain (NHP)” value in test [1] (setting [7]) is reported as 54.603 fold. Also, the “Fold Enrichment relative to AAV9, DRG (NHP)” value in test [1] (NHP DRG) came out at 0.000 fold. In test [1] (NHP heart), the “Fold Enrichment relative to AAV9, Heart (NHP)” value is recorded as 0.000 fold. In test [1] (NHP liver, DNA), the “Fold Enrichment relative to AAV9, Liver DNA (NHP)” value amounted to 0.106 fold. Further, the “Fold Enrichment relative to AAV9, Liver RNA (NHP)” value in test [1] (NHP liver, RNA) stood at 0.000 fold. In addition, the “Fold Enrichment relative to AAV9, Muscle (NHP)” value in test [1] (NHP muscle) is given as 0.000 fold.
Take KTFKGSGSPHSKAPNQQT: the “Fold Enrichment relative to AAV9, Brain (Mouse)” value with brain (setting [8]) and in the test on brain (setting [2]) was 71.144 fold throughout. Moreover, the “Fold Enrichment relative to AAV9, Brain (NHP)” value in test [1] (setting [3]) and in test [1] (setting [10]) was 80.890 fold each time. The “Fold Enrichment relative to AAV9, DRG (NHP)” value in test [1] (setting [9]) worked out at 0.000 fold; in test [1] (NGS fold-enrichment, NHP DRG), 0.000 fold. Also, the “Fold Enrichment relative to AAV9, Heart (NHP)” value amounted to 0.000 fold in test [1] (NGS fold-enrichment, NHP heart) and 0.000 fold in test [1] (setting [11]). Besides, the “Fold Enrichment relative to AAV9, Liver DNA (NHP)” value in test [1] (setting [4]) and in test [1] (setting [12]) was 0.017 fold each time. Also, the “Fold Enrichment relative to AAV9, Liver RNA (NHP)” value in test [1] (setting [5]) and in test [1] (setting [13]) was 0.000 fold each time. The “Fold Enrichment relative to AAV9, Muscle (NHP)” value in test [1] (setting [6]) and in test [1] (setting [14]) was 0.000 fold in each case.
With KTINGSGSPHSKAQGILT, the “Fold Enrichment relative to AAV9, Brain (Mouse)” value in the test with brain (mouse brain) was found to be 102.631 fold. Moreover, the “Fold Enrichment relative to AAV9, Brain (NHP)” value in test [1] (setting [7]) is on record as 58.418 fold. Further, the “Fold Enrichment relative to AAV9, DRG (NHP)” value in test [1] (NHP DRG) is listed as 0.000 fold. For the same sequence, the “Fold Enrichment relative to AAV9, Heart (NHP)” value in test [1] (NHP heart) is reported as 0.005 fold. Besides, the “Fold Enrichment relative to AAV9, Liver DNA (NHP)” value in test [1] (NHP liver, DNA) is on record as 0.192 fold. In addition, the “Fold Enrichment relative to AAV9, Liver RNA (NHP)” value in test [1] (NHP liver, RNA) was 0.569 fold. Besides, the “Fold Enrichment relative to AAV9, Muscle (NHP)” value in test [1] (NHP muscle) was determined as 0.010 fold.
Consider KTVHGSGSPHSKAQSQQT, for which the “Fold Enrichment relative to AAV9, Brain (Mouse)” value in the test on brain (mouse brain) amounted to 54.185 fold. For the same sequence, the “Fold Enrichment relative to AAV9, Brain (NHP)” value in test [1] (setting [7]) stood at 51.057 fold. The “Fold Enrichment relative to AAV9, DRG (NHP)” value in test [1] (NHP DRG) came out at 0.000 fold. For the same sequence, the “Fold Enrichment relative to AAV9, Heart (NHP)” value in test [1] (NHP heart) was determined as 0.000 fold. In test [1] (NHP liver, DNA), the “Fold Enrichment relative to AAV9, Liver DNA (NHP)” value is on record as 0.146 fold. In addition, the “Fold Enrichment relative to AAV9, Liver RNA (NHP)” value in test [1] (NHP liver, RNA) was found to be 0.143 fold. Besides, in test [1] (NHP muscle), the “Fold Enrichment relative to AAV9, Muscle (NHP)” value turned out to be 0.000 fold.
For the sequence KTIRDAGSPHSKAQNQQT, the “Fold Enrichment relative to AAV9, Brain (Mouse)” value in the test with brain (setting [8]) came to 113.179 fold. The “Fold Enrichment relative to AAV9, DRG (NHP)” value in test [1] (setting [9]) was 0.000 fold. Besides, in test [1] (setting [10]), the “Fold Enrichment relative to AAV9, Brain (NHP)” value is recorded as 60.346 fold. Also, in test [1] (setting [11]), the “Fold Enrichment relative to AAV9, Heart (NHP)” value turned out to be 0.000 fold. The “Fold Enrichment relative to AAV9, Liver DNA (NHP)” value in test [1] (setting [12]) came out at 0.251 fold. The “Fold Enrichment relative to AAV9, Liver RNA (NHP)” value in test [1] (setting [13]) is listed as 0.141 fold. In addition, the “Fold Enrichment relative to AAV9, Muscle (NHP)” value in test [1] (setting [14]) worked out at 0.000 fold.
KTELHSGSPHSKAQNQQT: the “Fold Enrichment relative to AAV9, Brain (Mouse)” value with brain (setting [8]) is 53.124 fold. Besides, the “Fold Enrichment relative to AAV9, DRG (NHP)” value in test [1] (setting [9]) was 0.000 fold. Also, the “Fold Enrichment relative to AAV9, Brain (NHP)” value in test [1] (setting [10]) was 74.620 fold. The “Fold Enrichment relative to AAV9, Heart (NHP)” value in test [1] (setting [11]) is 0.000 fold. Further, the “Fold Enrichment relative to AAV9, Liver DNA (NHP)” value in test [1] (setting [12]) is reported as 0.089 fold. Besides, in test [1] (setting [13]), the “Fold Enrichment relative to AAV9, Liver RNA (NHP)” value was 0.021 fold. Moreover, the “Fold Enrichment relative to AAV9, Muscle (NHP)” value in test [1] (setting [14]) is recorded as 0.000 fold.
For KTINGSGSPHSKARGEQT, the “Fold Enrichment relative to AAV9, Brain (Mouse)” value in the test on brain (mouse brain) came out at 128.098 fold. The “Fold Enrichment relative to AAV9, Brain (NHP)” value in test [1] (setting [7]) worked out at 54.207 fold. For the same sequence, the “Fold Enrichment relative to AAV9, DRG (NHP)” value in test [1] (NHP DRG) turned out to be 0.025 fold. In addition, the “Fold Enrichment relative to AAV9, Heart (NHP)” value in test [1] (NHP heart) turned out to be 0.006 fold. Also, the “Fold Enrichment relative to AAV9, Liver DNA (NHP)” value in test [1] (NHP liver, DNA) turned out to be 0.327 fold. In addition, the “Fold Enrichment relative to AAV9, Liver RNA (NHP)” value in test [1] (NHP liver, RNA) is 0.309 fold. Besides, in test [1] (NHP muscle), the “Fold Enrichment relative to AAV9, Muscle (NHP)” value worked out at 0.005 fold.
In the case of KTESRHDSPHKSGQNQQT, the “Fold Enrichment relative to AAV9, Brain (Mouse)” value in the test on brain (setting [2]) was found to be 6.975 fold. Moreover, in test [1] (setting [3]), the “Fold Enrichment relative to AAV9, Brain (NHP)” value is on record as 81.766 fold. The “Fold Enrichment relative to AAV9, DRG (NHP)” value in test [1] (NGS fold-enrichment, NHP DRG) was determined as 0.000 fold. Moreover, in test [1] (NGS fold-enrichment, NHP heart), the “Fold Enrichment relative to AAV9, Heart (NHP)” value is reported as 0.011 fold. Moreover, the “Fold Enrichment relative to AAV9, Liver DNA (NHP)” value in test [1] (setting [4]) is recorded as 0.036 fold. In addition, in test [1] (setting [5]), the “Fold Enrichment relative to AAV9, Liver RNA (NHP)” value amounted to 0.052 fold. Further, in test [1] (setting [6]), the “Fold Enrichment relative to AAV9, Muscle (NHP)” value was determined as 0.000 fold.
